Assay results taken from patent publication US12337005B2, “Methods of treating thrombosis” (UNIVERSITY OF IOWA RESEARCH FOUNDATION, priority 2020, dated 2025).

Legend:
human whole blood = assay: Bioflux flow chamber assay, human whole blood on collagen; type: cell-based
Method: In vitro thrombosis assays were performed using BioFlux™ 200 (Fluxion Biosciences, USA) microfluidics flow chamber (Nayak et al., 2018). The channels were coated with Type I collagen (100 μg/ml) for one hour at room temperature and then blocked with 0.5% BSA for 30 minutes. Platelets were isolated from citrated whole blood as described above, washed, labeled with the fluorescent dye (calcein AM; 2 μM) and were reconstituted back with PPP and remaining blood containing leukocytes and RBC. The whole blood pretreated with ML265 or vehicle (DMSO) was perfused over the collagen-coated plate at shear stress 1500 s^−1 for 5 minutes. Experiments were performed in triplicates using whole blood from human and mice. The fluorescently labeled platelets/thrombi on the collagen-coated surface were analyzed using ImageJ software from NIH (Bethesda, MD, USA).

male mice = assay: Tail bleeding assay; type: in vivo, mouse; settings: male mice pretreated with ML265
Method: (§1) Initially ML265 dissolved in DMSO was mixed with 200 μl of deionized water and administered intra-peritoneally to the at a dose of 25 and 50-mg/Kg body weight. In vivo thrombosis and tail transection assays were performed 10 minutes after administration of ML265 or vehicle infusion by a person who was blinded to the drug and vehicle infusion.
Tail-transection bleeding time was measured. Briefly, mice (approximately 8 weeks of age) were anesthetized with 100-mg/kg ketamine and 10-mg/kg xylazine and placed on a heating pad warmed at 37° C., and a 3 mm segment of the tail was amputated with a sharp scalpel blade. The tail was immediately immersed in saline (at 37° C.), and the time taken for the stream of blood to stop for more than 30 seconds was defined as the bleeding time.

[1] = cited from earlier work
murine platelets [2] = assay: Clot retraction, mouse platelet-rich plasma; type: cell-based; settings: thrombin 0.25 U/ml, ML265 50 and 100 μM
Method: To measure thrombin-stimulated fibrin clot retraction PRP was treated with ML265 (50 and 100 μM) or vehicle control (DMSO) for 10 minutes. Tyrode buffer was added to test tubes, along with red blood cells, to allow visualization of the clot. This was followed by the addition of PRP. Clot formation was initiated by adding thrombin (final concentration 0.25 U/ml) to the test tubes. Photographs were taken every 15 minutes and the assay was terminated after 60 minutes at which time the clot in the vehicle-treated samples were seen to have retracted completely. Clot area was analyzed using Image J software from NIH (Bethesda, MD, USA).

human platelets [3] = assay: P-selectin expression (α-granule secretion), human platelets; type: cell-based; settings: stimulus-activated human platelets pretreated with ML265
Method: Platelets (1×10^8 cells in 100 μl) were pre-incubated for 10 min either in presence or absence of ML265 (50 and 100 μM) then stimulated by convulxin or TRAP without stirring. Following this, platelets were labeled with PE-labeled anti-CD61 antibody and FITC conjugated anti-CD62P antibody. The platelet samples were incubated for 30 min in the dark at room temperature and analyzed on the flow cytometer (FACS Calibur, Becton Dickinson). An amorphous region (gate) was drawn to differentiate the platelets from the noise and multi-platelet particles. After compensation for FITC and PE, CD61-positive 10,000 events were collected for each sample.

murine platelets [4] = assay: In vitro platelet aggregation, mouse platelet-rich plasma; type: cell-based; settings: convulxin, collagen, PAR4 and ADP, ML265 50 and 100 μM
Method: (§2) Platelet rich plasma (PRP) or washed platelets (2×10^8/ml) treated with vehicle (DMSO) or ML265 (50 and 100 μM) were stirred (1200 rpm) at 37° C. for 2 min in a whole blood/optical lumi-aggregometer (Chrono-log; model 700-2) before the addition of agonists (convulxin, collagen, thrombin, PAR4, TRAP (PAR1 agonist) or adenosine diphosphate [ADP]). Aggregation was measured as percent change in light transmission, where 100% refers to transmittance through the blank sample (PRP/Buffer). Platelet dense granule secretion was determined by measuring the release of ATP using luciferin-luciferase reagent. To examine the effect of ML265 on ATP secretion, washed platelets were pretreated with vehicle (DMSO) or ML265 (50 and 100 μM) for 10 minutes before stimulation with various agonists. ATP release was performed in a lumi-aggregometer (Chrono-log; model 700-2) at 37° C.

human platelets [5] = assay: In vitro platelet aggregation, human platelet-rich plasma; type: cell-based; settings: convulxin, collagen, TRAP and ADP, ML265 50 and 100 μM
Method: as §2

[6] = test system: male wild-type mice on C57B16/J background; assay: FeCl3 injury-induced carotid artery thrombosis; type: in vivo, mouse
Method: as §1
Thrombus formation in the carotid artery after the FeCl3 injury was assessed by intravital microscopy. Briefly, 8-10 weeks old mice were anesthetized using 100-mg/kg ketamine and 10-mg/kg xylazine. Platelets labeled with calcein green (2.5×10^9 platelets per kg) were infused through the retro-orbital plexus. The common carotid artery was carefully exposed and kept moist by super-fusion with warm (˜37° C.) saline. Whatman paper (0.5×1.5 mm) saturated with ferric chloride (5%) solution was applied topically for 1.5 minutes for male and 2 mins for female mice, and thrombus formation in the injured carotid vessel was monitored in real time using a Nikon upright microscope (Plan Fluor 4×/0.2 objective), and thrombus growth overtime was recorded using a high-speed electron-multiplying camera for 40 minutes or until occlusion occurred. The time to form occlusive thrombus was considered as the time required for blood to stop flowing completely for >1 minute. Videos were evaluated off-line using a Nikon computer-assisted image analysis program.

[7] = test system: PI3 kinase-mediated Akt/GSK3β signaling; assay: Western blot of Akt/GSK3β phosphorylation, human platelets; type: cell-based; settings: convulxin- or thrombin-mediated, ML265 50 and 100 μM
Method: Platelet proteins were separated on 4-20% SDS-PAGE (sodium dodecyl sulfate-polyacrylamide gel electrophoresis) gradient gels and electrophoretic transferred to PVDF (polyvinylidene fluoride) membrane by using Bio-Rad western blotting system. For PKM2 dimer and tetramer study 6% native gels are used. Membranes were blocked with 5% BSA or skimmed milk in 10 mM Tris-HCl, 150 mM NaCl, pH 8.0 (TBS) containing 0.05% Tween-20 for one hour at room temperature. Blots were incubated for overnight with primary antibody, followed by horseradish peroxidase-labeled secondary antibody for one hour. Blots were developed using enhanced chemiluminescence and quantified using Image J software from NIH (Bethesda, MD, USA).

Cn1c2cc([S+](C)[O-])sc2c2cnn(Cc3cccc(N)c3)c(=O)c21 (centres unmarked) [ML265, 6-[(3-aminophenyl)methyl]-4,6-dihydro-4-methyl-2-(methylsulfinyl)-5H-thieno[2′,3′:4,5]pyrrolo[2,3-d]pyridazine-5-one]
reduction in the thrombus growth rate vs vehicle control (human whole blood; ML265 150 μM, collagen, 1500 s-1): ~5 fold
reduction in percent of the area covered by platelets vs vehicle control (human whole blood; ML265 150 μM, collagen, 1500 s-1, 5 minutes): ~5 fold
rate of thrombus growth (slope over time) (human whole blood; ML265 150 μM, vehicle slope 237.3): 37.92
thrombus formation vs vehicle control (human whole blood; ML265 50 or 100 μM, collagen, 1500 s-1, 5 minutes): no significant difference
mean time to cessation of bleeding (tail-transection bleeding time) vs vehicle (male mice): comparable
half-life [1]: short
clot retraction (murine platelets [2]): significant decrease
α-granule secretion (P-selectin exposure) (human platelets [3]): significant decrease
stimulus-dependent platelet aggregation (murine platelets [4]): reduced
stimulus-dependent platelet aggregation (human platelets [5]): reduced
mice that did not occlude ([6]; ML265-pretreated wild-type mice): 50%
time to occlusion, a large number of ML265 pre-treated mice (did not occlude) ([6]; control group approximately 20 mins): > 40 min
rate of thrombus growth (slope over time) ([6]; male mice pretreated with ML265, 5% FeCl3, vehicle slope 4.862): 1.531
time to complete vessel occlusion vs vehicle ([6]; male wild-type mice pretreated with ML265): significantly prolonged
reduction in the extent of thrombus growth vs vehicle ([6]; male wild-type mice, ML265 i.p. 10 minutes before 5% FeCl3 injury): ~4 fold
Akt phosphorylation [7]: down-regulated
GSK3β phosphorylation [7]: down-regulated
